Test results taken from publication PMC6874530, “Structural analysis identifies an escape route from the adverse lipogenic effects of liver X receptor ligands” (Communications Biology, 2019).

Tests used:
[1] = biological target: T1, LXRα (Homo sapiens, UniProt Q13133); experiment: Gal4 one hybrid reporter gene (transactivation) assay in U2OS cells, LXRα; assay type: cell-based
T1 construct: expression vectors pSG5-Gal4-LXRα LBD or pSG5-Gal4-LXRβ LBD; expressed in transfected cells; host or cells: U2OS osteosarcoma cells
T1 sequence (Q13133 209-447 limits assumed): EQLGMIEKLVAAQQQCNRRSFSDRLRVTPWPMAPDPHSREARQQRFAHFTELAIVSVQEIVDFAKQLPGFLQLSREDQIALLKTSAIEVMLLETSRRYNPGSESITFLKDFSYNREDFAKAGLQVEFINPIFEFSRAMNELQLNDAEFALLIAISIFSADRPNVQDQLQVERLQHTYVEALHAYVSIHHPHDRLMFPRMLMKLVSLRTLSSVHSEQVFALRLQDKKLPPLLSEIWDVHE
Procedure: (§1) Transactivation assays were performed in U2OS osteosarcoma cells (ATCC, USA). […] Ligands were added at ten different concentrations 2 h post transfection and the luciferase activity was measured after 40 h.

[2] = biological target: T2, LXRβ/SRC1 (Homo sapiens, UniProt P55055); experiment: SPR cofactor recruitment, LXRβ LBD binding to immobilized SRC1 coactivator peptide
T2 construct: human his-tagged LXRβ LBD (216-461); His tag; made in house; host or cells: Escherichia coli BL21(DE3)
T2 sequence (P55055 215-460 limits assumed): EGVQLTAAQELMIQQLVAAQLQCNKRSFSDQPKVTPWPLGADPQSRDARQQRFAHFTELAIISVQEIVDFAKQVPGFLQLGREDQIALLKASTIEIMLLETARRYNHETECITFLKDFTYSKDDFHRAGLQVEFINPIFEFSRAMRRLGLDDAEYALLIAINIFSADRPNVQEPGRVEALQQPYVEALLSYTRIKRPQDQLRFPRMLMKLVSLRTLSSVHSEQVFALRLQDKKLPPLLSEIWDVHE
T2 sequence (Q15788 with tags, fused parts or gaps partner limits assumed): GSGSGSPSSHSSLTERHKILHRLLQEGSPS
Procedure: The peptides carried an N-terminal biotin for surface immobilization on a Xantec NID200M Sensor Chip (NTA-derivatized carboxymethyldextran hydrogel, XanTec bioanalytics GmbH) preloaded with Ni^2+. […] LXRα and LXRβ LBD proteins were serially diluted in SPR running buffer (10 mM HEPES, 150 mM NaCl, and 0.05% Tween 20, pH 7.4) to a broad range of concentrations (0.02–10 µM) and equilibrated with tested compound (50 μM) prior to the sample injection over a modified biosensor surface. LXR-ligand complexes were injected in quick succession for 120 s over immobilized cofactor peptides and reference surfaces along with blank samples followed by 900 s of dissociation. The binding level at equilibrium was monitored for all samples, including the reference sample that contained DMSO at equal amount as tested compounds. All data were normalized to this reference sample in order to quantify the effects on peptide binding without bias by receptor instability. The surface was regenerated with 0.5% (w/v) SDS after each injection. Binding responses in the steady-state region of the sensorgrams were plotted against LXR LBD concentration to determine the overall equilibrium-binding affinity by fitting the data to nonlinear regression (Prism 8; GraphPad).

[3] = biological target: T3, LXRβ LBD (Homo sapiens, UniProt P55055); experiment: biochemical; details: Receptor-binding affinity pKi LXRβ, value (SD, n independent experiments)
T3 sequence (P55055 215-460 limits assumed): T2 sequence (P55055 215-460 limits assumed)
From the text: (§5) The compounds were run in triplicate (binding assay) or in quadruplicate (transactivation assay). Standard deviations are indicated for individual experiments run more than once.

[4] = biological target: T4, LXRα LBD (Homo sapiens, UniProt Q13133); experiment: biochemical; details: Receptor-binding affinity pKi LXRα, value (SD, n independent experiments)
T4 sequence (Q13133 200-447): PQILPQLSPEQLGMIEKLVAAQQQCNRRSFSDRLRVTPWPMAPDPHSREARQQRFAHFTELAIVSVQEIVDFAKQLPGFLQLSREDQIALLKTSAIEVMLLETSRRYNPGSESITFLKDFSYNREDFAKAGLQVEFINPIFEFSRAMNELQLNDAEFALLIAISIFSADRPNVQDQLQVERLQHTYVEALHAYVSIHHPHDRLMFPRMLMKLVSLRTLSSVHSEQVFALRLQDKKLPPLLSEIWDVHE
From the text: as §5

[5] = biological target: T4, LXRα LBD; experiment: differential HDX-MS of LXRα LBD (apo vs ligand-bound); set-up: Human his-tagged LXRα LBD (200-447); His tag; made in house; host or cells: Escherichia coli BL21(DE3); details: HDX-MS
Procedure: (§2) Prior to the deuterium incorporation experiments, 10 µM apo LXR was incubated with 10× excess of ligand or equal volume of DMSO for 30 min at room temperature. In the experiments with cofactors, 15× excess of the SRC1 coactivator peptide and the NCOR1 corepressor peptide were added to the ligand-bound or apo proteins, respectively, and incubated for 30 min at room temperature. […] A fully deuterated sample was generated by incubating protein with 4 M guanidine-HCl in D2O for 30 min at 45 °C. Exchange reactions were performed with a CTC PAL sample handling robot (LEAP Technologies). Labeling times were 30, 60, 180, 600, and 1800 s in the kinetics experiments. Differential HDX of a complete compound selection was measured after 30 and 600 s of labeling time points. Reactions were conducted by incubating 4 µl of LXR with 50 µl of D2O buffer (containing 25 mM Tris-HCl (pD 7.6), 50 mM NaCl, 10% glycerol, and 1 mM TCEP). The exchange reaction was stopped by the addition of 50 µl of quench solution (3 M urea, 0.1% TFA) followed by immediate injection into a Enzymate BEH Pepsin 2.1 × 30 mm Column (Waters, UK) for protein digestion (2 min at 24 °C). Peptic digest was further injected on a Waters nanoACQUITY UPLC System where peptides were first desalted by trapping for 3 min on a VanGuard Pre-Column Acquity UPLC BEH C18 (1.7 μm; 2.1 × 5 mm), and then eluted over a 6-min 5–40% (vol/vol) acetonitrile (containing 0.1% formic acid) gradient into a Waters Synapt G2-Si mass spectrometer. Peptide separation was conducted at 0.1 °C. All exchange reactions were performed in triplicates.
(§3) Peptides from three samples of non-deuterated LXR were identified by using the ProteinLynx Global Server (PLGS Waters, UK). Peptides with an intensity of over 5000, a mass error < 5 ppm, and present in at least two of the three data acquisitions were pooled and imported into the DynamX data analysis software (Waters, UK). After a first round of automated spectral processing by using DynamX, each peptide was inspected manually for suitability for further analysis.
(§4) For pairwise comparison, MEMHDX software was used to identify statistically significant changes of deuterium uptake. For all peptides, a value of relative exchange per amino acid was corrected to back exchange. The mean deuteration level per amino acid was calculated by using Matlab (Mathworks)[69] and subsequently mapped onto the crystal structures with PyMOL (Schrodinger LLC). For structural representation, loop modeling with MOE (Chemical Computing Group Inc.) was applied on 2ACL.pdb file for LXRα LBD, and 1PQC.pdb for LXRβ LBD.

[6] = biological target: T5, LXRβ (Homo sapiens, UniProt P55055); experiment: Gal4 one hybrid reporter gene (transactivation) assay in U2OS cells, LXRβ; assay type: cell-based
T5 construct: expression vectors pSG5-Gal4-LXRα LBD or pSG5-Gal4-LXRβ LBD; expressed in transfected cells; host or cells: U2OS osteosarcoma cells
T5 sequence (P55055 222-460 limits assumed): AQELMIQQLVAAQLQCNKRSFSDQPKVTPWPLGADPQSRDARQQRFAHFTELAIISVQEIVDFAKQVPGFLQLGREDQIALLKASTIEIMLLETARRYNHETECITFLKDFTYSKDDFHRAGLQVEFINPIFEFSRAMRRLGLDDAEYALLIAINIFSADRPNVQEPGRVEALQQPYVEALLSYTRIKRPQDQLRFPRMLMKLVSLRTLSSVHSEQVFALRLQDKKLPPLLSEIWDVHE
Procedure: as §1

[7] = biological target: T3, LXRβ LBD; experiment: differential HDX-MS of LXRβ LBD (apo vs ligand-bound); set-up: human his-tagged LXRβ LBD (216-461); His tag; made in house; host or cells: Escherichia coli BL21(DE3); details: after 30 s of deuterium exchange
Procedure: as §2, §3, §4

SMILES: C[C@H](CC[C@@H]1OC1(C)C)[C@H]1CC[C@H]2[C@@H]3CC=C4C[C@@H](O)CC[C@]4(C)[C@H]3CC[C@]12C [24,25EC, 24(S),25-epoxycholesterol, reference compound]
- agonist activity in the Gal4 reporter gene assay, LXRα [1]: No signal was observed
- EC50 ([1]; U2OS cells, Gal4-LXRα LBD, value (SD, n), read-out: LXRα transactivation pEC50 (converted)): > 50100 nM
- Kd [2]: 2500 nM
- Ki [3]: 132 nM
- Ki [4]: 275 nM
- stabilization of LXRα H12 [5]: did not stabilize LXRα H12
- agonist activity in the Gal4 reporter gene assay, LXRβ [6]: No signal was observed
- EC50 ([6]; LXRβ transactivation pEC50, U2OS cells, Gal4-LXRβ LBD, value (SD, n)): > 50100 nM
- protection of LXRβ H11–H12 from deuterium exchange [7]: 10%
